According to patent US10869931B2, “Polyethylene glycol-modified angiogenesis inhibitor HM-1 and application thereof” (NANJING ANJI BIOLOGICAL TECHNOLOGY CO.,LTD, priority 2016, dated 2020):
Marks after values point to notes of the source that are not given here. Where no end group is shown, it is not given here.

What was measured:
[1] = test system: IL-1β production by mouse peritoneal macrophages; assay: IL-1β production by mouse peritoneal macrophages (ELISA); type: cell-based; conditions: 48 h
Experimental: (1) IL-1β production: mice were intraperitoneally injected with 1 mL of broth (containing 6%) starch, and three days later, the mouse peritoneal macrophages were aseptically taken, washed twice with 1640 medium, and the cell concentration was adjusted to 2×10^6 cells/mL, inject into a 24-well culture plate, 1 mL per well, incubate for 3 hours in a cell culture incubator, shake once every 30 minutes, and allow the cells to fully adhere. Then, it was washed twice with the culture solution to remove unattached cells. The blank group was added with PBS, the positive group was added with the positive drug dexamethasone (Dex), the model group was not administered, to the experimental group was added low, medium and high three concentrations of mPEG-HM-1, and the culture was continued for 48 hours after the administration, 1000 r/min. Centrifuge for 15 min. The supernatant was taken as a sample for testing activity of IL-1β.
(2) Determination of IL-1β content: using R&D mouse IL-1β enzyme-linked immunosorbent assay kit, according to the kit instructions as follows: respectively, the tested samples and different concentrations of standard products, sealed with sealing tape the reaction well and incubated at 37° C. for 90 min; the plate was washed four times; the biotinylated antibody working solution (100 μL/well) was added, and the reaction well was sealed with sealing paper, incubated at 37° c. for 60 min; the plate was washed four times; Add the enzyme conjugate working solution (100 μL/well), seal the reaction well with sealing paper, incubate at 37° C. for 30 min; wash the plate four times; add color reagent (100 μL/well), incubate at 37° C. 10-20 min, add stop solution (100 μL/well), mix and measure OD450 value.

[2] = test system: Kidney cancer tumor cells; assay: MTT proliferation inhibition, kidney cancer cells; type: cell-based, human; design: concentration or dose not given beside the values; conditions: 48 h
Experimental: (§1) The activity of mPEG-HM-1 to inhibit the growth of various tumor cells was examined by MTT assay. The tumor cells were cultured to a concentration of 90% or more in a 37° C., 5% CO2 incubator and collected by trypsinization. The cells were resuspended in the culture medium and counted under a microscope to adjust the cell concentration to 2×10^4 cells/mL, the cell suspension was inoculated into a 96-well plate at 100 μL/well and incubated overnight at 37° C. in a 5% CO2 incubator. mPEG-HM-1 was diluted with the culture solution to each predetermined concentration. Docetaxel is diluted to the final concentration with the culture medium. After the cells were fully attached, each dilution was added to a 96-well plate (100 μL/well). The mPEG-HM-1 dilution was added as a drug-administered group, and docetaxel was added as a positive control group, and a culture solution without any drug was used as a negative control group. Incubate for 48 h at 37° C. in a 5% CO2 incubator. 5 mg/mL of MTT was added to a 96-well plate at 20 μL per well, and incubation was continued for 4 hours. The medium was aspirated, dissolved in 150 μL of DMSO per well, and gently mixed by shaking for 10 min. The absorbance was measured at a measurement wavelength of 570 nm and a reference wavelength of 630 nm using a microplate reader, and the rate of growth inhibition (proliferation inhibition, PI) was calculated. The formula is as follows: PI (%)=1−administration group/negative group
(§2) The test was repeated 3 times independently, and the results obtained by the test were expressed as mean±SD, and the test results are shown in Table 15 to Table 18.

[3] = test system: Thyroid cancer tumor cells; assay: MTT proliferation inhibition, thyroid cancer cells; type: cell-based, human; design: concentration or dose not given beside the values; conditions: 48 h
Experimental: as §1, §2

[4] = test system: Bladder Cancer tumor cells; assay: MTT proliferation inhibition, bladder cancer cells; type: cell-based, human; design: concentration or dose not given beside the values; conditions: 48 h
Experimental: as §1, §2

[5] = test system: Gastric cancer tumor cells; assay: MTT proliferation inhibition, gastric cancer cells; type: cell-based, human; design: concentration or dose not given beside the values; conditions: 48 h
Experimental: as §1, §2

[6] = test system: collagen induced arthritis (CIA) in DBA/1 mice; assay: Collagen-induced mouse arthritis (CIA) model; type: in vivo; conditions: CIA DBA/1 mice; for Clinical score: maximum score 16
[7] = test system: Esophageal cancer tumor cells; assay: MTT proliferation inhibition, esophageal cancer cells; type: cell-based, human; design: concentration or dose not given beside the values; conditions: 48 h
Experimental: as §1, §2

[8] = test system: xylene-induced ear swelling in Kunming mice; assay: Xylene-induced ear swelling in mice; type: in vivo, mouse; conditions: for Inhibition rate: ear swelling vs control
Experimental: Kunming mice were used. The saline group was used as the blank control group, the aspirin group (200 mg/kg) as the positive control group, and the mPEG-HM-1 administration group as the experimental group. Mice were administered once daily for 5 consecutive days. The blank control group was given an equal volume of physiological saline. One hour after the last administration, 0.05 mL of xylene was applied to both sides of the right ear of the mice to cause inflammation, and the left ear was not coated as normal ears. After 2 h, the mice were sacrificed by dislocation, and the ears were cut along the auricle. Ear pieces were taken with a puncher, weighed, and the swelling degree and swelling rate were calculated. Swelling degree=right ear piece weight-left ear piece weight, swelling rate=(swelling degree/left ear piece weight)×100%. Statistical t-test was performed on the test results, *P<0.05 was a significant difference, and **P<0.01 was a very significant difference. See Table 31 to Table 34 for the results.

[9] = 10 mg/kg subcutaneous from day 30 of modeling
[10] = 80 mg/kg subcutaneous from day 30 of modeling

With “mPEG-bALD5k-Arg-Gly-Ala-Asp-Arg-Ala-Gly-Gly-Gly-Gly-Arg-Gly-Asp ({mPEG‑bALD 5 kDa}-RGADRAGGGGRGD) [mPEG-bALD5k-HM-1]” as the substance, how does the IL-1β ([1]; 5 μg/mL) read?
The IL-1β was 729.25 ± 18.34 pg/mL.

And the “Inhibition Rate of IL-1β production” value ([1]; 5 μg/mL)?
Its value is 20.92%.

And the IL-1β ([1]; 10 μg/mL)?
The IL-1β was 659.63 ± 16.52 pg/mL.

What about the “Inhibition Rate of IL-1β production” value ([1]; 10 μg/mL) of the same substance?
Its value is 28.47%.

And the IL-1β ([1]; 20 μg/mL)?
Its IL-1β is 533.11 ± 10.87 pg/mL.

What about the “Inhibition Rate of IL-1β production” value ([1]; 20 μg/mL) of the same substance?
Its value is 42.19%.

And the “rate of growth inhibition” value [2]?
Its value is 57.63 ± 12.09%.

What about the “rate of growth inhibition” value [3] of the same substance?
Its value is 42.19 ± 10.35%.

What about the “rate of growth inhibition” value [4] of the same substance?
Its value is 36.03 ± 10.12%.

What about the “rate of growth inhibition” value [5] of the same substance?
Its value is 56.87 ± 14.41%.

And the Joint swelling [6, 9]?
Its Joint swelling is 0.73 ± 0.15 mm.

What about the “Left and right paw swelling” value [6, 9] of the same substance?
The value was 0.74 ± 0.13 mm.

And the Clinical score [6, 9]?
The Clinical score was 8.98 ± 1.25.

And the “rate of growth inhibition” value [7]?
Its value is 45.03 ± 11.46%.

And the “Inhibition rate” value ([8]; 5 mg/kg once daily for 5 days)?
The value was 10.36%.

And the Swelling ([8]; 5 mg/kg once daily for 5 days, right minus left ear piece weight 2 h after xylene)?
Its Swelling is 5.44 ± 0.19 mg.

What about the Swelling ([8]; 10 mg/kg once daily for 5 days, 2 h after xylene) of the same substance?
Its Swelling is 4.83 ± 0.30* mg.

And the “Inhibition rate” value ([8]; 10 mg/kg once daily for 5 days)?
The value was 20.47%.

What about the Swelling ([8]; 20 mg/kg once daily for 5 days, 2 h after xylene) of the same substance?
The Swelling was 4.18 ± 0.25** mg.

And the “Inhibition rate” value ([8]; 20 mg/kg once daily for 5 days)?
Its value is 31.08%.

How did the IL-1β ([1]; 40 μg/mL) turn out when “mPEG-bALD40k-Arg-Gly-Ala-Asp-Arg-Ala-Gly-Gly-Gly-Gly-Arg-Gly-Asp ({mPEG‑bALD 40 kDa}-RGADRAGGGGRGD) [mPEG-bALD40k-HM-1]” was run?
Its IL-1β is 740.78 ± 16.79 pg/mL.

What about the “Inhibition Rate of IL-1β production” value ([1]; 40 μg/mL) of the same substance?
Its value is 19.67%.

What about the IL-1β ([1]; 80 μg/mL) of the same substance?
The IL-1β was 648.10 ± 14.55 pg/mL.

What about the “Inhibition Rate of IL-1β production” value ([1]; 80 μg/mL) of the same substance?
Its value is 29.72%.

What about the IL-1β ([1]; 160 μg/mL) of the same substance?
The IL-1β was 518.91 ± 12.90 pg/mL.

And the “Inhibition Rate of IL-1β production” value ([1]; 160 μg/mL)?
The value was 43.73%.

And the “rate of growth inhibition” value [2]?
The value was 60.06 ± 18.88%.

What about the “rate of growth inhibition” value [3] of the same substance?
Its value is 45.53 ± 12.98%.

What about the “rate of growth inhibition” value [4] of the same substance?
Its value is 43.82 ± 10.31%.

What about the “rate of growth inhibition” value [5] of the same substance?
The value was 68.65 ± 16.93%.

And the Joint swelling [6, 10]?
The Joint swelling was 0.78 ± 0.16 mm.

And the “Left and right paw swelling” value [6, 10]?
The value was 0.79 ± 0.13 mm.

And the Clinical score [6, 10]?
The Clinical score was 9.01 ± 1.45.

What about the “rate of growth inhibition” value [7] of the same substance?
The value was 57.19 ± 12.07%.

What about the Swelling ([8]; 40 mg/kg once daily for 5 days, 2 h after xylene) of the same substance?
The Swelling was 5.25 ± 0.12 mg.

What about the “Inhibition rate” value ([8]; 40 mg/kg once daily for 5 days) of the same substance?
The value was 13.45%.

And the Swelling ([8]; 80 mg/kg once daily for 5 days, 2 h after xylene)?
The Swelling was 4.68 ± 0.72* mg.

What about the “Inhibition rate” value ([8]; 80 mg/kg once daily for 5 days) of the same substance?
The value was 22.94%.

What about the Swelling ([8]; 160 mg/kg once daily for 5 days, 2 h after xylene) of the same substance?
Its Swelling is 4.06 ± 0.26** mg.

What about the “Inhibition rate” value ([8]; 160 mg/kg once daily for 5 days) of the same substance?
Its value is 33.09%.
